Here are results for one molecule from article PMC10587737, “Dracorhodin targeting CMPK2 attenuates inflammation: A novel approach to sepsis therapy” (Clinical and Translational Medicine, 2023).

The target in one assay is CMPK2^Lys320 protein. Nature of the assay: MST binding to CMPK2 Lys320 mutant. The following applies: Lys320 mutated. Set-up: species or system human. As for the experimental part:
Human CMPK2 and K265, K282 and K320 mutated CMPK2 cDNA were cloned and inserted into the pTT5 vector, and the constructed plasmid was amplified by the DH5α strain. The C‐terminus of the cDNA was fused with a 6× His tag, and the N‐terminus was truncated by 22 amino acids (Figure 1B–F and Supporting Information Figure S5A,B). When the free‐style 293‐F cells reached the proper density, approximately 1 mg of expression plasmid was premixed with 3 mg polyethylenimine in UltraFectin medium and incubated prior to transfection. This mixture was then added to the appropriate amount of fresh cell culture medium, incubated for 30 min and collected after 48 h.
The MST assay is an emerging technique used to quantitatively elucidate binding. The binding parameter between CMPK2 and DP was measured using MST on a Monolith NT.115 system (Germany). CMPK2 was fluorescently labeled with the Monolith NT Protein Labeling Kit RED (L018, NanoTemper Technologies GmbH, Munich, Germany) according to the manufacturer’s instructions. The Monolith NT.115 system was used with Monolith NT.115 standard capillaries (M0-K022). MST assay buffer was used to dilute the labeled CMPK2 to 2 μM. […] The binding and dissociation constants (Kd) were evaluated and calculated using M0-Affinity analysis software version 2.1.3 (Nano Temper Technologies) for the ligand.

A further assay has as its target T1, CMPK2 (Homo sapiens, UniProt Q5EBM0).
T1 sequence (Q5EBM0 22-449): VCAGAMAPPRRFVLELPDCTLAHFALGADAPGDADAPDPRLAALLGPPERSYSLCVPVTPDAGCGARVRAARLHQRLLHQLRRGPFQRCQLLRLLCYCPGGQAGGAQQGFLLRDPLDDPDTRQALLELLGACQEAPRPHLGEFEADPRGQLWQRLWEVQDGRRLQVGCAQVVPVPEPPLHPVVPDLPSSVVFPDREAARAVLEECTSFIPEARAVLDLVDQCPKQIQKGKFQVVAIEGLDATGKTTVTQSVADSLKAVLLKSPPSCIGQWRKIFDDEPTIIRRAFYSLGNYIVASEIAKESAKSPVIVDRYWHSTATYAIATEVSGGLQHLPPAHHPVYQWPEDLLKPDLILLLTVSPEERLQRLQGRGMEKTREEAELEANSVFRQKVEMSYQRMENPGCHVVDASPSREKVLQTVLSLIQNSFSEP
Nature of the assay: Ultrafiltration-affinity mass spectrometry screening (FC, CMPK2 vs BSA). In kind it is binding. Further details: the N‐terminus was truncated by 22 amino acids; 6xHis (C); made in house; host or cells: FreeStyle 293-F cells (pTT5 vector).

Assay [1] relates to LPS-induced septic shock in Cmpk2^∆DMye mice. Nature of the assay: LPS-induced septic shock in myeloid-specific Cmpk2-deficient mice. In kind it is in vivo, mouse. The following applies: DP 40 mg/kg, LPS 20 mg/kg, 72 h. As for the experimental part: The C57BL/6J mice used in the studies were obtained from the Model Animal Research Center of Shanghai University of Traditional Chinese Medicine. All animals were housed under a 12-hr light/dark cycle at 22-24°C with unrestricted access to food and water for the duration of the experiment except during fasting tests. Myeloid-specific Cmpk2-deficient (Cmpk2^DMye) mice were donated by Prof. Huazhang An from Shandong Provincial Key Laboratory for Rheumatic Disease and Translational Medicine. All animal experiments were approved by the Regional Ethics Committee of Shanghai University of Traditional Chinese Medicine.
Sepsis was induced by intraperitoneal injection of 8- to 12-week-old gender-matched wild-type mice with LPS (E. coli O111:B4, Sigma-Aldrich) at 20 mg per kg body weight. Mouse survival was monitored every 1 h after injection for a total of 72 h. In a separate experiment, mice were treated with the same dose of LPS, and immune sera were collected 6 h post injection. Then, the abdominal cavity was washed with PBS. The levels of IL-1β and TNF-α in serum and peritoneal lavage ﬂuid were determined by ELISA. Then, the livers, kidneys and lungs were immediately removed and washed in ice-cold PBS. They were fixed with 4% paraformaldehyde, which was used for hematoxylin-eosin (H&E), Masson staining and Sirius red staining.

The subject of assay [2] is NLRP3 inflammasome in BMDMs. Nature of the assay: NLRP3 inflammasome activation in LPS-primed BMDMs (ATP/Nigericin; ELISA, immunoblot). The assay is classed as cell-based, mouse. The following applies: DP 2.5, 5, 10 μM, supernatant. Here is the method:
Mouse bone marrow cells (isolated from the legs of mice) were cultured in DMEM supplemented with 20% FBS. BMDMs were generated by culturing mouse bone marrow cells in the presence of 20 ng/ml M-CSF-conditioned medium for 7 days. BMDMs were seeded in 6- or 48-well plates overnight in FBS-free DMEM. On day 2, after priming with ultrapure LPS (200 ng/ml) for 4 h, BMDMs (1 × 10^6 cells/ml) were further stimulated with ATP (4 mM) or nigericin (10 μM) for 45 min. Supernatants and cell lysates were collected for ELISA and immunoblot analyses.
The cytokines mouse IL-1β and TNF-α in supernatants from serum, cell culture, and tissue culture were assayed by ELISA kits (R&D Systems, Minneapolis, MN, USA) according to the manufacturer’s instructions.
Cells were lysed in NP-40 buffer containing a protease inhibitor cocktail (Roche, 11836153001) and a phosphatase inhibitor cocktail (Sigma-Aldrich, P5726). Protein concentrations were quantified using a BCA Protein Assay Kit (Beyotime, 5000T P0011). Equal amounts of protein were separated by SDS-PAGE and transferred onto nitrocellulose membranes. The membranes were then incubated with antibodies against CMPK2, NLRP3, ASC, pro-caspase-1, pro-IL-1β, GAPDH, caspase-1 and IL-1β, followed by incubation with the appropriate secondary HRP-conjugated antibodies and development with ECL.
In general terms: An ELISA detects its analyte on a solid surface through an enzyme-linked reagent.

On to `COc1c2ccc(-c3ccccc3)oc-2cc(=O)c1C` [compound 73, Dracohodin perochlorate], for which the “binding (Kd by MST)” value on CMPK2^Lys320 protein was “no binding”. Also, at CMPK2 (affinity mass spectrometry competition, Figure S3C), the “binding between dUMP and CMPK2” value is reported as “interfered”. In addition, at CMPK2 (negative ion mode, ratio of MS response CMPK2 vs BSA), the “FC Negative” value is listed as 3.00. In addition, the “FC Positive” value on CMPK2 (positive ion mode, ratio of MS response CMPK2 vs BSA) was 4.32. Moreover, the survival rate result in assay [1] is “did not further improve”. Further, in assay [2] (12 h before or 1 h after LPS), the “lysis of p20 (caspase-1)” value is listed as “inhibited” and the “secretion of p17 (IL-1β)” value is “inhibited”. Also, the “production of TNF-α” value in assay [2] was “had no effect”.
